Assay results: ChEMBL document CHEMBL5046296 (J Med Chem, 2022)
Values after ≈ are worked out from the molar mass of the structure shown.

Experiments:
[1] = Metabolic stability in rat liver microsomes assessed as CYP450-mediated metabolism by measuring parent compound remaining at 0.5 uM incubated for 10 mins in presence of NADPH by LC-MS/MS analysis; assay type: ADME; settings: read-out: Stability
Rattus norvegicus [2] = experiment: Analgesic activity in streptozotocin induced diabetic peripheral neuropathic mechanical allodynia in overnight fasted Sprague-Dawley rat model assessed as reduction in pain response at 1 mg/kg, po measured after 5.5 hrs post treatment; assay type: functional; design: scale not given: the % may be the effect or the level left
[3] = Volume of distribution at steady state in monkey at 2 mg/kg, iv; assay type: ADME, organism-based, Macaca mulatta; settings: rhesus monkey, in vivo, read-out: Vdss
[4] = biological target: Citron Rho-interacting kinase (Homo sapiens, UniProt O14578); experiment: Inhibition of CRIK (unknown origin)
Sequence of Citron Rho-interacting kinase (O14578 whole entry): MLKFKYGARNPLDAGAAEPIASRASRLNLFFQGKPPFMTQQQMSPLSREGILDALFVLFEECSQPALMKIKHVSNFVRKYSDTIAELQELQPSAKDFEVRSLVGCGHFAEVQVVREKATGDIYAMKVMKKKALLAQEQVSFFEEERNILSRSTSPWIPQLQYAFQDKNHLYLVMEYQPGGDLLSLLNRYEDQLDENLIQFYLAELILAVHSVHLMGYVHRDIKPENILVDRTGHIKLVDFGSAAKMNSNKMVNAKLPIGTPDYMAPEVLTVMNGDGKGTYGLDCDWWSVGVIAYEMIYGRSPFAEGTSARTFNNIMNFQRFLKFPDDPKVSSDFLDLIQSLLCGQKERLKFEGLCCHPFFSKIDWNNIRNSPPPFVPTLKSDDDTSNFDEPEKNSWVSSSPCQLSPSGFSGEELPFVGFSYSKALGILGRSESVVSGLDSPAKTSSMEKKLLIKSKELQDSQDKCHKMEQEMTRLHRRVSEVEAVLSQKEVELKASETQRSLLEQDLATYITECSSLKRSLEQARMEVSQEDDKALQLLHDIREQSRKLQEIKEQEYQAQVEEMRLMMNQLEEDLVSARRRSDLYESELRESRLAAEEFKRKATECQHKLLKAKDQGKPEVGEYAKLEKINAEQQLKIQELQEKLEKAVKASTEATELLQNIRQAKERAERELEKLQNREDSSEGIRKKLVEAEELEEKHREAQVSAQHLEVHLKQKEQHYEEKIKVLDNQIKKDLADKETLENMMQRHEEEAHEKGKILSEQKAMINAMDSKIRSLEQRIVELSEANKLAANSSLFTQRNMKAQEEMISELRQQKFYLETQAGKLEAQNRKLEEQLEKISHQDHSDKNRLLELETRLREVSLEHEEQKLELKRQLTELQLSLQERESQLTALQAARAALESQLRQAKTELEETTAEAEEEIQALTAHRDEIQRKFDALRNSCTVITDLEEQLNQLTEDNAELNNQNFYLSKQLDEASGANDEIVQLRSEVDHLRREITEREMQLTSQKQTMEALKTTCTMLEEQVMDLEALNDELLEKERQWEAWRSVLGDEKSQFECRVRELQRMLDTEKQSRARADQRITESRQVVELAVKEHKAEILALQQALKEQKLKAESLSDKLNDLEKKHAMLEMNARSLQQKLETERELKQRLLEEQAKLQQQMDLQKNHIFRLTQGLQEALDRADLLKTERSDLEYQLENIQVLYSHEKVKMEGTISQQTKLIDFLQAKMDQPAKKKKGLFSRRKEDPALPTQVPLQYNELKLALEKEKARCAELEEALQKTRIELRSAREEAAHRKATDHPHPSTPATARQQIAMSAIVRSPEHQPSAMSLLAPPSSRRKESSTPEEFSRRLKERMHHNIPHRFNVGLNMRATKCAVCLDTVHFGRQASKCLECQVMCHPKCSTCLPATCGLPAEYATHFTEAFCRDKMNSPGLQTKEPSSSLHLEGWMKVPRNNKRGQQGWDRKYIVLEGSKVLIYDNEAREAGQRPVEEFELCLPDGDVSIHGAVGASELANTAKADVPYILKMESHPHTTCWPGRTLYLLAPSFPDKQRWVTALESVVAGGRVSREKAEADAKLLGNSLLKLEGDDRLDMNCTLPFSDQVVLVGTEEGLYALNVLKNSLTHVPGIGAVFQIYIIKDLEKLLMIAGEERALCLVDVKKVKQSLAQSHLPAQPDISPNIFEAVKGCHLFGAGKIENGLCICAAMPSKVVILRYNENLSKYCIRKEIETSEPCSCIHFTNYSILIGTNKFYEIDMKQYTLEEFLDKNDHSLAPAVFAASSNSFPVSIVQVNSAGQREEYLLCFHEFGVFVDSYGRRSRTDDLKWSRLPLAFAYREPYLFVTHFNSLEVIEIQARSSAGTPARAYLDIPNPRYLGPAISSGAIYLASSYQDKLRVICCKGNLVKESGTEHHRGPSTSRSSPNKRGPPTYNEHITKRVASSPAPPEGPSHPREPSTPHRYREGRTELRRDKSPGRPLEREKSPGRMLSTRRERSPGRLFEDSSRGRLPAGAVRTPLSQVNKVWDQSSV

[5] = Ratio of drug concentration in spinal cord to plasma in Sprague-Dawley rat at 30 mg/kg, po measured at 5.25 hrs post dose; assay type: ADME, organism-based
[6] = Ratio of drug concentration in spinal cord to plasma of overnight fasted Sprague-Dawley rat model with streptozotocin induced diabetic peripheral neuropathic mechanical allodynia at 0.3 mg/kg, po measured at 5.5 hrs post dose; assay type: ADME, organism-based
Rattus norvegicus [7] = experiment: Analgesic activity in CCI induced thermal hyperalgesia Sprague-Dawley rat model assessed as efficacy at 0.1 mg/kg, po measured at 5.75 hrs post dose; assay type: functional
Cytochrome P450 3A4 [8] = biological target: T1, Cytochrome P450 3A4 (Homo sapiens, UniProt P08684); experiment: Time dependent inhibition of CYP3A4 (unknown origin) using TST as substrate measured at 30 mins; assay type: ADME
T1 sequence (P08684 whole entry): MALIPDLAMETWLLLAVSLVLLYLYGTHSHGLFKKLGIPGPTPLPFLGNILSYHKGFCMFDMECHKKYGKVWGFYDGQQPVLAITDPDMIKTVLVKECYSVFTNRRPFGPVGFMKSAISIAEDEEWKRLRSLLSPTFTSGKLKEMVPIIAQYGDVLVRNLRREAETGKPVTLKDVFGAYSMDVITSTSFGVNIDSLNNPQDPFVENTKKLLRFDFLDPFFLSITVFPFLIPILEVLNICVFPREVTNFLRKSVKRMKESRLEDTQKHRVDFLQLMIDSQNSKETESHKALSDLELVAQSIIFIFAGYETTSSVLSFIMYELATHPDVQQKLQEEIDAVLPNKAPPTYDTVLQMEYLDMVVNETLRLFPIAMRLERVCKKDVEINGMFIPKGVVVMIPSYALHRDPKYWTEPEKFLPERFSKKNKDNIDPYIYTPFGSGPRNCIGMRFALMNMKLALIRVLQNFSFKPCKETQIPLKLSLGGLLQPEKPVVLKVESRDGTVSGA

[9] = Protein binding in human plasma assessed as unbound fraction at 10 uM measured after 5 hrs by LC-MS/MS analysis; assay type: ADME, cell-free
[10] = Oral bioavailability in monkey at 3 mg/kg; assay type: ADME, organism-based, Macaca mulatta; settings: rhesus monkey, in vivo
[11] = Drug uptake in Spinal cord of CCI induced thermal hyperalgesia Sprague-Dawley rat model assessed as spinal occupancy at 0.1 mg/kg, po measured at 5.75 hrs post dose in presence of [3H]BMT-046091; assay type: ADME, organism-based; settings: in vivo
[12] = Toxicity in naive Sprague-Dawley rat assessed as motor impairment at 3 to 30 mg/kg, po measured after 5 hrs by rotarod test; assay type: organism-based; settings: in vivo, dose 3-30 mg/kg
[13] = AUC (infinity) in monkey at 3 mg/kg, po; assay type: ADME, organism-based, Macaca mulatta; design: route oral, time infinity, dose 3 mg/kg; settings: rhesus monkey, in vivo
[14] = Apparent elimination half life in rat at 2 mg/kg, iv; assay type: ADME, organism-based; settings: in vivo, read-out: betat1/2(app) (converted)
Cytochrome P450 = Cytochrome P450 (Homo sapiens, UniProt P04798+P05177+P05181+P08684+P10632+P10635+P11509+P11712+P13584+P20813+P20815+P20853+P24462+P24903+P33260+P33261+P51589+P78329+P98187+Q02928+Q08477+Q16678+Q16696+Q5TCH4+Q6VVX0+Q7Z449+Q8TAV3+Q96SQ9+Q9HB55); experiment: Metabolic stability in human liver microsomes assessed as CYP450-mediated metabolism by measuring parent compound remaining at 0.5 uM incubated for 10 mins in presence of NADPH by LC-MS/MS analysis; assay type: ADME; settings: read-out: Stability
[15] = biological target: Voltage-gated inwardly rectifying potassium channel KCNH2 (Homo sapiens, UniProt Q12809); experiment: Inhibition of human ERG by patch clamp assay; assay type: toxicity
Rattus norvegicus [16] = experiment: Analgesic activity in streptozotocin induced diabetic peripheral neuropathic mechanical allodynia in overnight fasted Sprague-Dawley rat model assessed as efficacy at 1 mg/kg, po measured at 5.5 hrs post dose; assay type: functional
[17] = Clearance in rat at 2 mg/kg, iv; assay type: ADME, organism-based; settings: in vivo
[18] = Solubility of the compound in FaSSIF; assay type: physicochemical
[19] = AUC (infinity) in rat at 2 mg/kg, iv; assay type: ADME, organism-based; design: time infinity, route intravenous, dose 2 mg/kg; settings: in vivo
[20] = Solubility of the compound in propylene glycol; assay type: physicochemical
[21] = Oral bioavailability in mouse at 3 mg/kg; assay type: ADME, organism-based; settings: in vivo
Rattus norvegicus [22] = experiment: Analgesic activity in streptozotocin induced diabetic peripheral neuropathic mechanical allodynia in overnight fasted Sprague-Dawley rat model assessed as reduction in pain response at 0.3 mg/kg, po measured after 5.5 hrs post treatment; assay type: functional; design: scale not given: the % may be the effect or the level left
[23] = Volume of distribution at steady state in mouse at 2 mg/kg, iv; assay type: ADME, organism-based; settings: in vivo, read-out: Vdss
Rattus norvegicus [24] = experiment: Analgesic activity in CCI induced thermal hyperalgesia Sprague-Dawley rat model assessed as efficacy at 1 mg/kg, po measured at 5.75 hrs post dose; assay type: functional
[25] = Cmax in naive Sprague-Dawley rat plasma at 3 mg/kg, po measured at 5.25 hrs post dose; assay type: ADME, organism-based; design: route oral, time 5.25 hrs, dose 3 mg/kg
[26] = biological target: ATP-binding cassette sub-family C member 2 (Homo sapiens, UniProt Q92887); experiment: Inhibition of MRP2 (unknown origin)
Sequence of ATP-binding cassette sub-family C member 2 (Q92887 whole entry, the tested form may be a part): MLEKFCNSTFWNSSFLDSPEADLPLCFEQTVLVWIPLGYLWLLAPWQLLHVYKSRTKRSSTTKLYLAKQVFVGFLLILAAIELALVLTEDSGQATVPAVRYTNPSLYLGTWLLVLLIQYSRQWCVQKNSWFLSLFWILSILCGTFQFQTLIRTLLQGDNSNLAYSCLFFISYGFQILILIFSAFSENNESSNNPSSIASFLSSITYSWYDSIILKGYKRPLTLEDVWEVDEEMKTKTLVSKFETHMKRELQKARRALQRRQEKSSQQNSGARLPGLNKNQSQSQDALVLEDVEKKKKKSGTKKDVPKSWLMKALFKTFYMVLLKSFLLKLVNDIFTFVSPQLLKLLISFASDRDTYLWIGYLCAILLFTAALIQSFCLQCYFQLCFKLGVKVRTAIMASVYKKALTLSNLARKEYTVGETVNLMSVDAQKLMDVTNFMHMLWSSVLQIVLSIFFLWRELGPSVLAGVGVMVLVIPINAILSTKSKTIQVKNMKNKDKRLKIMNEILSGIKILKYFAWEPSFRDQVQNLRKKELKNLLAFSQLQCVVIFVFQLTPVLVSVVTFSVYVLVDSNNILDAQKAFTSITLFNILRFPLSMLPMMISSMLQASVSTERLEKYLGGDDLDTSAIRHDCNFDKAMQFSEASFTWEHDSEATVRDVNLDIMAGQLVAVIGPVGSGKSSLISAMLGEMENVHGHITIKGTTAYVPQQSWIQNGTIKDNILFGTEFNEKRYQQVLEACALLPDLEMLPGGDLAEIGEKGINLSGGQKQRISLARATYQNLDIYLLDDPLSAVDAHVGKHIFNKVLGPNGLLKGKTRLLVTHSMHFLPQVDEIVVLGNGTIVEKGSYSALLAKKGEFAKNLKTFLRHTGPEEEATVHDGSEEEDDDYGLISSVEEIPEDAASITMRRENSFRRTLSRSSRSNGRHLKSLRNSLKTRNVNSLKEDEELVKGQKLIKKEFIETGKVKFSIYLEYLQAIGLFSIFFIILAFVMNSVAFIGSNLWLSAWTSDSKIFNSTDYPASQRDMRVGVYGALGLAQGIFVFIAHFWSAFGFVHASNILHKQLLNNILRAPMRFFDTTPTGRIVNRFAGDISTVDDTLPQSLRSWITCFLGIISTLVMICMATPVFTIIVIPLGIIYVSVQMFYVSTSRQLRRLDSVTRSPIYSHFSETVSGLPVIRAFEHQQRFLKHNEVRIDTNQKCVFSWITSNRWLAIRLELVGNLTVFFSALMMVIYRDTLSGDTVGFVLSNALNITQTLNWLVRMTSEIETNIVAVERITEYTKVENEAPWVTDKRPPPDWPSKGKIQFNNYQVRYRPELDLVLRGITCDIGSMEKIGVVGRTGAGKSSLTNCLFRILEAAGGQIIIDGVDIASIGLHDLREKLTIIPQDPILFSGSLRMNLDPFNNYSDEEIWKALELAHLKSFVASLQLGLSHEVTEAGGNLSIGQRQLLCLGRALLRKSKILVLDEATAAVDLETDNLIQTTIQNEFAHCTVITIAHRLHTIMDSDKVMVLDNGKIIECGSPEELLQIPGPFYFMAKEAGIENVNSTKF

[27] = biological target: AP2-associated protein kinase 1 (Homo sapiens, UniProt Q2M2I8); experiment: Inhibition of GST-Xa tagged human AAK1 (30 to 330 residues) expresssed in bacteria using (5-FAM)-Aha-KEEQSQITSQVTGQIGWR-NH2 peptide as substrate incubated for 3 hrs in presence of ATP by electrophoretic analysis
Cytochrome P450 1A2 = Cytochrome P450 1A2 (Homo sapiens, UniProt P05177); experiment: Inhibition of CYP1A2 (unknown origin); assay type: ADME
Sequence of Cytochrome P450 1A2 (P05177 whole entry): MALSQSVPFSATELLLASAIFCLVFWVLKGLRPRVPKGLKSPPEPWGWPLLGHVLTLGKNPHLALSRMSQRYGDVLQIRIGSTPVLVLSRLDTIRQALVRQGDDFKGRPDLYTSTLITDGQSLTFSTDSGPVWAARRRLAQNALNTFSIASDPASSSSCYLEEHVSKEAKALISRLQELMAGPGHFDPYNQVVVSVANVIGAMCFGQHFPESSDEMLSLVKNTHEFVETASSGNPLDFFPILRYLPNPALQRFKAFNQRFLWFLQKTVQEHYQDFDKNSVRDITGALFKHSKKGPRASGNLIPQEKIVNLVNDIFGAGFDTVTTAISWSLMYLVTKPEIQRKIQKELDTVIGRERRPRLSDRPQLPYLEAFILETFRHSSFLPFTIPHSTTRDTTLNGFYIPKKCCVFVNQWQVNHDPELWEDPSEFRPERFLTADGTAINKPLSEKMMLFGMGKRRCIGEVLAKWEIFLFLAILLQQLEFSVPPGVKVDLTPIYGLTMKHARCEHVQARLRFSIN

[28] = Protein binding in dog plasma assessed as unbound fraction at 10 uM incubated for 5 hrs by LC-MS/MS analysis; assay type: ADME, cell-free, Canis lupus familiaris
Rattus norvegicus [29] = experiment: Analgesic activity in streptozotocin induced diabetic peripheral neuropathic mechanical allodynia in overnight fasted Sprague-Dawley rat model assessed as efficacy at 0.1 mg/kg, po measured at 5.5 hrs post dose; assay type: functional
[30] = Ratio of drug concentration in spinal cord to plasma of overnight fasted Sprague-Dawley rat model with streptozotocin induced diabetic peripheral neuropathic mechanical allodynia at 3 mg/kg, po measured at 5.5 hrs post dose; assay type: ADME, organism-based
[31] = Apparent elimination half life in dog at 2 mg/kg, iv; assay type: ADME, organism-based, Canis lupus familiaris; settings: in vivo, read-out: betat1/2(app) (converted)
Cytochrome P450 2C19 = Cytochrome P450 2C19 (Homo sapiens, UniProt P33261); experiment: Inhibition of CYP2C19 (unknown origin); assay type: ADME
Sequence of Cytochrome P450 2C19 (P33261 whole entry): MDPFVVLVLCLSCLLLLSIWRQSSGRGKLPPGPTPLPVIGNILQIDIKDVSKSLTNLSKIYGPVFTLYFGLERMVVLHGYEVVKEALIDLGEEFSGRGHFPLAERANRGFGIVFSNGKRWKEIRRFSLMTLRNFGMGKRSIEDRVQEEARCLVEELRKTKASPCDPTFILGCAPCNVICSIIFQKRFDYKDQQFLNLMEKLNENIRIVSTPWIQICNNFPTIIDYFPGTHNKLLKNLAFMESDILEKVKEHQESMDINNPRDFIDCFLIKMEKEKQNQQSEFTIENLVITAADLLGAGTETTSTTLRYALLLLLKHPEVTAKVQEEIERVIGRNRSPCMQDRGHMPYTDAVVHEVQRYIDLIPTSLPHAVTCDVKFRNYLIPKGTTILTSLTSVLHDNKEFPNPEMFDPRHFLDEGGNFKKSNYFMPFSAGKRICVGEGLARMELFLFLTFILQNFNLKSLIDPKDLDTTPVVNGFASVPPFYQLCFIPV

[32] = Cmax in naive Sprague-Dawley rat plasma at 30 mg/kg, po measured at 5.25 hrs post dose; assay type: ADME, organism-based; design: route oral, time 5.25 hrs, dose 30 mg/kg
[33] = MRT in mouse at 2 mg/kg, iv; assay type: ADME, organism-based; settings: in vivo
Rattus norvegicus [34] = experiment: Analgesic activity in CCI induced thermal hyperalgesia in Sprague-Dawley rat assessed as reversal of thermal hyperalgesia by measuring reduction in paw withdrawal latency at 0.3 mg/kg, po measured after 5.5 hrs by Hargreaves test relative to control; assay type: functional; design: scale not given: the % may be the effect or the level left
Cytochrome P450 3A4 [35] = biological target: T1, Cytochrome P450 3A4; experiment: Time dependent inhibition of CYP3A4 (unknown origin) using TST as substrate measured at 5 mins; assay type: ADME
[36] = Cmax in rat at 3 mg/kg, po; assay type: ADME, organism-based; design: route oral, dose 3 mg/kg; settings: in vivo
[37] = AUC (infinity) in dog at 2 mg/kg, iv; assay type: ADME, organism-based, Canis lupus familiaris; design: time infinity, route intravenous, dose 2 mg/kg; settings: in vivo
[38] = Cmax in mouse at 3 mg/kg, po; assay type: ADME, organism-based; design: route oral, dose 3 mg/kg; settings: in vivo
[39] = Drug uptake in Spinal cord of CCI induced thermal hyperalgesia Sprague-Dawley rat model assessed as spinal occupancy at 1 mg/kg, po measured at 5.75 hrs post dose in presence of [3H]BMT-046091; assay type: ADME, organism-based; settings: in vivo
[40] = Lipophilicity, log D of the compound at pH 7.4; assay type: physicochemical; settings: buffer

## CC(C)C[C@](C)(N)COc1ccc(-c2ccnc(C(F)F)c2)nc1C(F)F [PILAVAPADIN]
[1]
  remaining at 10 min, 0.5 µM: 92%
Rattus norvegicus [2]
  Activity: >60%
[3]
  Vd: 20.6 L/kg
[4]
  IC50: 410 nM
[5]
  Kp at 5.25 h: 20
[6]
  Kp at 5.5 h: 8
Rattus norvegicus [7]
  Efficacy: 25%
Cytochrome P450 3A4 [8]
  IC50: > 40000 nM
[9]
  fraction unbound at 5 h, 10 µM: 0.085
[10]
  bioavailability: 11%
[11]
  Occ: 37%
[12]
  Activity: Non-Toxic
[13]
  AUC(0-inf): 270 ng·h/mL
[14]
  half-life: 8.7 h
Cytochrome P450
  remaining at 10 min, 0.5 µM: 87%
[15]
  IC50: 1400 nM
Rattus norvegicus [16]
  Efficacy: 60%
[17]
  clearance: 28.5 mL/min/kg
[18]
  solubility: 700 µg/mL (≈ 1820 µM)
[19]
  AUC(0-inf): 1180 ng·h/mL
[20]
  solubility: > 50000 µg/mL
[21]
  bioavailability: 100%
Rattus norvegicus [22]
  Activity: 20%
[23]
  Vd: 19 L/kg
Rattus norvegicus [24]
  Efficacy: 97%
[25]
  Cmax: 200 nM
[26]
  IC50: > 30000 nM
[27]
  IC50: 2 nM
Cytochrome P450 1A2
  IC50: > 20000 nM
[28]
  fraction unbound at 5 h, 10 µM: 0.04
Rattus norvegicus [29]
  Efficacy: 20%
[30]
  Kp at 5.5 h: 7
[31]
  half-life: 4.8 h
Cytochrome P450 2C19
  IC50: > 20000 nM
[32]
  Cmax: 1650 nM
[33]
  MRT: 63.8 h
Rattus norvegicus [34]
  Activity: 25%
Cytochrome P450 3A4 [35]
  IC50: > 40000 nM
[36]
  Cmax: 60 ng/mL
[37]
  AUC(0-inf): 1210 ng·h/mL
[38]
  Cmax: 260 ng/mL
[39]
  Occ: 96%
[40]
  logD: 1.48
